Source: publication PMC6989684 (Scientific Reports, 2020)

Biological target: T1, M. musculus importin-α (MmImpα), variant α2, truncated 70–529 (Mus musculus, UniProt P52293)
T1 construct: histidine tag; made in house; host or cells: Escherichia coli Rosetta (TM) pLYS
Assay: Isothermal titration calorimetry (ITC), NLS peptide titrated into MmImpα
Assay type: binding
Conditions: 20 °C; for interaction with Impα receptor in words: mutated PAC-3 NLS (basic cluster to Ala), pH 8.0, protein/peptide 1:10 and 1:20; for Stoichiometry (binding): mutated PAC-3 NLS, 20 mM Tris-HCl pH 8.0, 100 mM NaCl, protein/peptide 1:10 and 1:20
Source text: The gene encoding the protein Impα from M. musculus was cloned into the pET30a expression vector. Recombinant MmImpα was cloned with a histidine tag and as a truncated protein (70–529) to avoid autoinhibition. The clones were provided by Dr. Bostjan Kobe from the University of Queensland (Australia). The plasmid was expressed in Escherichia coli host strain Rosetta (TM) pLYS (Novagen), and the recombinant protein was purified by affinity chromatography according to Barros et al., 2012[59]. The protein was eluted with a 0.0–0.15 M imidazole linear gradient, concentrated using an Amicon dispositive, and the buffer was changed to 20 mM Tris-HCl, pH 8.0 and 100 mM NaCl for storage. The purified protein was stored at cryogenic temperature.
The samples were submitted to ITC experiments, performed with a MicroCal iTC200 microcalorimeter (GE Healthcare), where the peptide sample was titrated into the protein sample. […] Control experiments were performed by titration of the peptide sample into the buffer, and the data obtained were subtracted from the peptide:protein titrations. Data were processed using Origin 7.0 software (Microcal Software, Northampton, MA) to obtain the thermodynamic constants of the interactions.

| Sequence | interaction with Impα receptor in words | Stoichiometry (binding) |
| --- | --- | --- |
| FDARKRQFDDLNDFFGSVAAAQIN [PAC3Δmajor, mutated PAC-3 NLS peptide, C-terminal basic cluster mutated] | no measured interaction with Impα receptor | No binding |
| FDAAAAQFDDLNDFFGSVKRRQIN [PAC3Δminor, mutated PAC-3 NLS peptide, N-terminal basic cluster mutated] | no measured interaction with Impα receptor | No binding |
